Assay: In vivo biodistribution of radioactive ^99mTc complexes in female SD rats
Design: species or system female Sprague-Dawley (SD) rats
Settings: for Biodistribution: Large Intestine / Biodistribution: Small Intestine / Biodistribution: Stomach: unit % ID; for absolute myocardial uptake peak value: peak at 60 min post-injection
Experimental: Female SD rats (180-220 g, n=3) were fasted for 12 h before the experiment, and the purified radioactive 99mTc complexes 78-81 were prepared into physiological saline (containing 10% ethanol) solutions of about 250-350 μCi/mL. 200 μL of the above solution was injected into the tail vein of female SD rats, and the rats were killed by cervical dislocation at five time points, 15, 30, 60, 120 and 240 min after the tail vein injection. The blood, brain, heart, liver, spleen, lung, kidney, muscle, bone, large intestine, small intestine, stomach and tail were collected, weighed and counted, and the count distribution of each tissue and organ was calculated (unit: % ID/g, the unit of large intestine, small intestine and stomach is % ID), and the data are the mean±standard deviation of three mice in each phase. At the same time, 200 μL of the above solution was diluted to 20 mL, which was used as the % ID without deducting the tail count.

## COC(C)(C)C[N+]#[C][99Tc-5]([C]#[N+]CC(C)(C)OC)([C]#[N+]CC(C)(C)OC)([C]#[N+]CC(C)(C)OC)([C]#[N+]CC(C)(C)OC)[C]#[N+]CC(C)(C)OCCSCCCCC(=O)O [^99mTc complex 78]
  absolute myocardial uptake values (comparison with complexes 79-81): lower than the above values
  heart-to-liver ratios (comparison with complexes 79-81): lower than the above values

## COC(C)(C)C[N+]#[C][99Tc-5]([C]#[N+]CC(C)(C)OC)([C]#[N+]CC(C)(C)OC)([C]#[N+]CC(C)(C)OC)([C]#[N+]CC(C)(C)OC)[C]#[N+]CC(C)(C)OCCCCSCCCCC(=O)O [^99mTc complex 79]
15 min post-injection
  Biodistribution: Blood: 0.11 ± 0.02 ID %/g
  Biodistribution: Bone: 0.13 ± 0.02 ID %/g
  Biodistribution: Brain: 0.021 ± 0.005 ID %/g
  Biodistribution: Heart: 1.50 ± 0.27 ID %/g
  Biodistribution: Kidney: 4.87 ± 0.72 ID %/g
  Biodistribution: Liver: 1.28 ± 0.19 ID %/g
  Biodistribution: Lungs: 0.30 ± 0.06 ID %/g
  Biodistribution: Muscle: 0.24 ± 0.06 ID %/g
  Biodistribution: Spleen: 0.52 ± 0.10 ID %/g
  Heart-to-Blood ratio: 13.99 ± 3.55
  Heart-to-Liver ratio: 1.22 ± 0.33
  Heart-to-Lungs ratio: 5.16 ± 0.69
  absolute myocardial uptake value: 1.50±0.27 % ID/g
  Biodistribution: Large Intestine: 0.76 ± 0.20 % ID
  Biodistribution: Small Intestine: 14.70 ± 0.78 % ID
  Biodistribution: Stomach: 0.51 ± 0.05 % ID
30 min post-injection
  Biodistribution: Blood: 0.09 ± 0.01 ID %/g
  Biodistribution: Bone: 0.09 ± 0.01 ID %/g
  Biodistribution: Brain: 0.012 ± 0.005 ID %/g
  Biodistribution: Heart: 2.24 ± 0.31 ID %/g
  Biodistribution: Kidney: 3.37 ± 0.38 ID %/g
  Biodistribution: Liver: 1.38 ± 0.16 ID %/g
  Biodistribution: Lungs: 0.27 ± 0.03 ID %/g
  Biodistribution: Muscle: 0.81 ± 0.14 ID %/g
  Biodistribution: Spleen: 0.16 ± 0.01 ID %/g
  Heart-to-Blood ratio: 25.88±5.10
  Heart-to-Liver ratio: 1.63 ± 0.27
  absolute myocardial uptake value: 2.24±0.31 % ID/g
  Biodistribution: Large Intestine: 12.06 ± 3.78 % ID
  Biodistribution: Small Intestine: 25.98 ± 3.13 % ID
  Biodistribution: Stomach: 0.47 ± 0.15 % ID
60 min post-injection
  Biodistribution: Blood: 0.04 ± 0.01 ID %/g
  Biodistribution: Bone: 0.05 ± 0.01 ID %/g
  Biodistribution: Brain: 0.009 ± 0.001 ID %/g
  Biodistribution: Heart: 2.45 ± 0.35 ID %/g
  Biodistribution: Kidney: 1.65 ± 0.53 ID %/g
  Biodistribution: Liver: 0.66 ± 0.12 ID %/g
  Biodistribution: Lungs: 0.14 ± 0.02 ID %/g
  Biodistribution: Muscle: 0.47 ± 0.10 ID %/g
  Biodistribution: Spleen: 0.09 ± 0.02 ID %/g
  Heart-to-Blood ratio: 56.19±13.56
  Heart-to-Liver ratio: 3.82±1.21
  Heart-to-Lungs ratio: 17.12±3.09
  absolute myocardial uptake value: 2.45±0.35 % ID/g
  Biodistribution: Large Intestine: 16.70 ± 2.72 % ID
  Biodistribution: Small Intestine: 22.54 ± 5.67 % ID
  Biodistribution: Stomach: 0.19 ± 0.06 % ID
120 min post-injection
  Biodistribution: Blood: 0.012 ± 0.002 ID %/g
  Biodistribution: Bone: 0.04 ± 0.01 ID %/g
  Biodistribution: Brain: 0.009 ± 0.002 ID %/g
  Biodistribution: Heart: 1.54 ± 0.45 ID %/g
  Biodistribution: Kidney: 0.65 ± 0.14 ID %/g
  Biodistribution: Liver: 0.28 ± 0.01 ID %/g
  Biodistribution: Lungs: 0.11 ± 0.03 ID %/g
  Biodistribution: Muscle: 0.21 ± 0.05 ID %/g
  Biodistribution: Spleen: 0.05 ± 0.01 ID %/g
  Heart-to-Blood ratio: 118.25±44.79
  Heart-to-Liver ratio: 5.55±1.38
  Heart-to-Lungs ratio: 15.05±5.27
  absolute myocardial uptake value: 1.54 0.45 % ID/g
  Biodistribution: Large Intestine: 27.61 ± 2.20 % ID
  Biodistribution: Small Intestine: 5.24 ± 0.78 % ID
  Biodistribution: Stomach: 0.22 ± 0.03 % ID
240 min post-injection
  Biodistribution: Blood: 0.025 ± 0.003 ID %/g
  Biodistribution: Bone: 0.13 ± 0.03 ID %/g
  Biodistribution: Brain: 0.007 ± 0.002 ID %/g
  Biodistribution: Heart: 0.60 ± 0.04 ID %/g
  Biodistribution: Kidney: 0.22 ± 0.02 ID %/g
  Biodistribution: Liver: 0.24 ± 0.01 ID %/g
  Biodistribution: Lungs: 0.09 ± 0.01 ID %/g
  Biodistribution: Muscle: 0.27 ± 0.02 ID %/g
  Biodistribution: Spleen: 0.11 ± 0.01 ID %/g
  Heart-to-Blood ratio: 24.36±1.72
  Heart-to-Liver ratio: 2.45 ± 0.18
  Heart-to-Lungs ratio: 6.66±0.60
  absolute myocardial uptake value: 0.60±0.04 % ID/g
  Biodistribution: Large Intestine: 33.40 ± 4.10 % ID
  Biodistribution: Small Intestine: 4.53 ± 0.88 % ID
  Biodistribution: Stomach: 0.20 ± 0.02 % ID
  absolute myocardial uptake peak value: 2.45±0.35 % ID/g

## COC(C)(C)C[N+]#[C][99Tc-5]([C]#[N+]CC(C)(C)OC)([C]#[N+]CC(C)(C)OC)([C]#[N+]CC(C)(C)OC)([C]#[N+]CC(C)(C)OC)[C]#[N+]CC(C)(C)OCCCCCCSCCCCC(=O)O [^99mTc complex 81]
  myocardial absolute uptake peak value (assessment): close to the corresponding value of myocardial perfusion imaging agent ^99mTc-MIBI
  absolute myocardial uptake peak value: 3.98±0.25 % ID/g
15 min post-injection
  Biodistribution: Blood: 0.018 ± 0.001 ID %/g
  Biodistribution: Bone: 0.24 ± 0.05 ID %/g
  Biodistribution: Heart: 3.37 ± 0.15 ID %/g
  Biodistribution: Kidney: 9.30 ± 0.20 ID %/g
  Biodistribution: Liver: 1.79 ± 0.26 ID %/g
  Biodistribution: Lungs: 0.86 ± 0.17 ID %/g
  Biodistribution: Muscle: 0.72 ± 0.11 ID %/g
  Biodistribution: Spleen: 0.70 ± 0.06 ID %/g
  Heart-to-Blood ratio: 192.24 ± 13.25
  Heart-to-Liver ratio: 1.93 ± 0.26
  Heart-to-Lungs ratio: 4.44 ± 0.26
  absolute myocardial uptake value: 3.37±0.15 % ID/g
  Biodistribution: Large Intestine: 6.53 ± 0.73 % ID
  Biodistribution: Small Intestine: 12.23 ± 2.35 % ID
  Biodistribution: Stomach: 1.05 ± 0.04 % ID
30 min post-injection
  Biodistribution: Blood: 0.016 ± 0.002 ID %/g
  Biodistribution: Bone: 0.15 ± 0.01 ID %/g
  Biodistribution: Heart: 3.45 ± 0.19 ID %/g
  Biodistribution: Kidney: 5.21 ± 1.54 ID %/g
  Biodistribution: Liver: 1.11± 0.16 ID %/g
  Biodistribution: Lungs: 0.575 ± 0.002 ID %/g
  Biodistribution: Muscle: 0.37 ± 0.06 ID %/g
  Biodistribution: Spleen: 0.88 ± 0.13 ID %/g
  Heart-to-Blood ratio: 220.61±45.73
  Heart-to-Liver ratio: 3.30 ± 0.42
  Heart-to-Lungs ratio: 6.00 ± 0.31
  absolute myocardial uptake value: 3.45±0.19 % ID/g
  Biodistribution: Large Intestine: 14.01 ± 1.87 % ID
  Biodistribution: Small Intestine: 17.82 ± 0.19 % ID
  Biodistribution: Stomach: 0.65 ± 0.11 % ID
60 min post-injection
  Biodistribution: Blood: 0.009 ± 0.001 ID %/g
  Biodistribution: Bone: 0.14 ± 0.01 ID %/g
  Biodistribution: Heart: 3.98 ± 0.25 ID %/g
  Biodistribution: Kidney: 4.90 ± 0.17 ID %/g
  Biodistribution: Liver: 0.60 ± 0.12 ID %/g
  Biodistribution: Lungs: 0.28 ± 0.07 ID %/g
  Biodistribution: Muscle: 0.77 ± 0.13 ID %/g
  Biodistribution: Spleen: 0.34 ± 0.04 ID %/g
  Heart-to-Blood ratio: 449.52±67.26
  Heart-to-Lungs ratio: 14.35 ± 2.38
  absolute myocardial uptake value: 3.98±0.25 % ID/g
  Biodistribution: Large Intestine: 6.44 ± 0.70 % ID
  Biodistribution: Small Intestine: 15.98 ± 1.55 % ID
  Biodistribution: Stomach: 0.46 ± 0.11 % ID
120 min post-injection
  Biodistribution: Blood: 0.020 ± 0.004 ID %/g
  Biodistribution: Bone: 0.12 ± 0.01 ID %/g
  Biodistribution: Heart: 2.83 ± 0.25 ID %/g
  Biodistribution: Kidney: 4.03 ± 0.24 ID %/g
  Biodistribution: Liver: 0.36 ± 0.05 ID %/g
  Biodistribution: Lungs: 0.27 ± 0.03 ID %/g
  Biodistribution: Muscle: 0.60 ± 0.11 ID %/g
  Biodistribution: Spleen: 0.25 ± 0.04 ID %/g
  Heart-to-Blood ratio: 146.14±22.27
  Heart-to-Liver ratio: 7.91 ± 0.50
  Heart-to-Lungs ratio: 10.43 ± 0.62
  absolute myocardial uptake value: 2.83±0.25 % ID/g
  Biodistribution: Large Intestine: 19.30 ± 1.11 % ID
  Biodistribution: Small Intestine: 24.46 ± 3.26 % ID
  Biodistribution: Stomach: 0.92 ± 0.03 % ID
240 min post-injection
  Biodistribution: Blood: 0.016 ± 0.002 ID %/g
  Biodistribution: Bone: 0.036 ± 0.005 ID %/g
  Biodistribution: Heart: 2.29 ± 0.05 ID %/g
  Biodistribution: Kidney: 2.07 ± 0.17 ID %/g
  Biodistribution: Liver: 0.17 ± 0.03 ID %/g
  Biodistribution: Lungs: 0.15 ± 0.02 ID %/g
  Biodistribution: Muscle: 0.48 ± 0.06 ID %/g
  Biodistribution: Spleen: 0.12 ± 0.02 ID %/g
  Heart-to-Blood ratio: 143.42±25.82
  Heart-to-Liver ratio: 11.82 ± 1.15
  Heart-to-Lungs ratio: 15.97 ± 2.41
  absolute myocardial uptake value: 2.29±0.05 % ID/g
  Biodistribution: Large Intestine: 27.81 ± 4.20 % ID
  Biodistribution: Small Intestine: 13.00 ± 1.55 % ID
  Biodistribution: Stomach: 0.30 ± 0.08 % ID

Reference: patent US20250114486A1, “MARKED FATTY ACID DERIVATIVE, PRECURSOR COMPOUND THEREOF, AND USE THEREOF IN CONTRAST AGENT” (BEIJING NORMAL UNIVERSITY, priority 2022, published 2025)
